From patent US9090670B2, “Use of peptides for promoting wound healing” (priority 2008, dated 2015) come the findings set out here.

In experiment [1] the test system is human buccal epithelial cell line TR146. As to the kind of experiment: In vitro scratch wound closure assay on an epithelial monolayer. In kind it is cell-based. The protocol: The human buccal epithelial cell line TR146 (Rupniak et al; J Natl Cancer Inst. 1985 October: 75(4):621-35) was kindly provided by Cancer Research UK. Cells were grown in Dulbecco's modified Eagle medium with 4.5 g/l glucose (Invitrogen), 10% FCS (HyClone) and 100 U/ml penicillin, […] streptomycin, and 250 ng/ml amphotericinB (Antibiotic antimyotic solution, Sigma,), at 37° C., 95% humidity and 5% CO2. Cells were maintained until near confluence and then briefly treated with 0.25% trypsin-EDTA 1× (Invitrogen) to detach them, counted in a hepacytometer and seeded into new flasks or multi-well plates at the required cell density of about 1.5×10^5 cells/well. Wound assays were performed as previously described ([…] et al., 1993, J Cell Sci. 106 (Pt 3):869-78). In brief, cells were grown in 12-well plates until confluence, and then were serum deprived for 24 hours in keratinocyte serum free medium (SFM (Invitrogen)). In each well a scratch was made in the cellular monolayer using a sterile tip. The wounded monolayer was washed with SFM to remove cellular debris, and the following conditions were applied: • (i) Whole saliva and salivary secretions applied in 30% (v/v) in SFM. As a negative control 30% (v/v) saliva buffer was used. • (ii) (ii) rhEGF (Invitrogen) as a positive control • (iii) rp-HPLC fractions containing salivary proteins; • (iv) synthetic peptides: the experiments with isolated proteins and synthetic peptides were performed in full SFM. The width of the wound area was determined microscopically immediately after wound creation and at approximately 16 hours after wounding. The relative closure was calculated by relating the closure to that of the negative control.

For experiment [2] the test system is unchanged. As to the kind of experiment: In vitro wound closure with inhibitors of EGFR, p38 MAPK and ERK1/2. The format is cell-based. The procedure:
Wound assays were performed as previously described (Matthay et al., 1993, J Cell Sci. 106 (Pt 3):869-78). In brief, cells were grown in 12-well plates until confluence, and then were serum deprived for 24 hours in keratinocyte serum free medium (SFM (Invitrogen)). In each well a scratch was made in the cellular monolayer using a sterile tip. The wounded monolayer was washed with SFM to remove cellular debris, and the following conditions were applied: • (i) Whole saliva and salivary secretions applied in 30% (v/v) in SFM. As a negative control 30% (v/v) saliva buffer was used. • (ii) (ii) rhEGF (Invitrogen) as a positive control • (iii) rp-HPLC fractions containing salivary proteins; • (iv) synthetic peptides: the experiments with isolated proteins and synthetic peptides were performed in full SFM.
For inhibitor studies; directly after wounding cells were exposed to inhibitors of ERK1/2 (U0126, 5 μM, LC Laboratories), EGFR (AG1478, 1 μM, Calbiochem), and p38 MAPK (SB203580, 5 μM; LC Laboratories). Experiments were done in quadruplicate and analyzed using One-way ANOVA to determine significance with additional LSD post hoc test, P<0.05 was considered significant.

Where no end group is shown, it is not given here.

As for “EGF: epidermal growth factor, rhEGF (Invitrogen), used as a positive control”, the “induction of wound closure by EGF” value in experiment [1] (5 ng/ml, FIG. 1D) was “able to induce wound closure with rates comparable to that of parotid saliva”. In addition, the “Wound closure rel. clos. ± SD” value in experiment [1] (TR146 monolayer, approx. 16 hours after wounding, closure relative to negative control, peptides tested at 1-50 μg/ml) was 1.41 ± 0.12. Besides, the “induced wound closure with EGFR blocked” value in experiment [2] (AG1478 1 μM) is on record as “abolished the effect”. Also, the “pathway dependence of induced wound closure” value in experiment [2] (SB203580 5 μM (p38 MAPK), U0126 5 μM (ERK1/2), FIG. 2) is on record as “p38^MAPK dependent”.
Turning to `CC(C)C[C@H](NC(=O)[C@H](Cc1ccc(O)cc1)NC(=O)[C@H](CC(N)=O)NC(=O)[C@H](CO)NC(=O)[C@H](CCCNC(=N)N)NC(=O)[C@H](Cc1ccc(O)cc1)NC(=O)CNC(=O)[C@H](CCCNC(=N)N)NC(=O)[C@H](Cc1c[nH]cn1)NC(=O)[C@H](CO)NC(=O)[C@H](Cc1c[nH]cn1)NC(=O)[C@H](Cc1c[nH]cn1)NC(=O)[C@H](CCCCN)NC(=O)[C@H](CCC(=O)O)NC(=O)[C@H](Cc1c[nH]cn1)NC(=O)[C@H](Cc1ccccc1)NC(=O)[C@H](CCCCN)NC(=O)[C@H](CCCNC(=N)N)NC(=O)[C@H](CCCCN)NC(=O)[C@H](Cc1ccc(O)cc1)NC(=O)CNC(=O)[C@H](Cc1c[nH]cn1)NC(=O)[C@H](Cc1c[nH]cn1)NC(=O)[C@H](CCCNC(=N)N)NC(=O)[C@H](CCCCN)NC(=O)[C@H](C)NC(=O)[C@H](Cc1c[nH]cn1)NC(=O)[C@H](CO)NC(=O)[C@@H](N)CC(=O)O)C(=O)N[C@@H](Cc1ccc(O)cc1)C(=O)N[C@@H](CC(=O)O)C(=O)N[C@@H](CC(N)=O)C(=O)O` [Histatin 3], the “induction of wound closure (in words)” value in experiment [1] (synthesized peptides in SFM, vs control) is “induce wound closure”.
“C-HST1: cyclic peptide having the amino acid sequence according to SEQ. ID. NO. 4, Histatin 1 (DSHEKRHHGYRRKFHEKHHSHREFPFYGDYGSNYLYDN; ends and bridges not checked; also: cyclic, mode of cyclisation not given here)”: the relative wound closure in experiment [1] (concentration of 1*10-3 μM, FIG. 4, 1 = no peptide added) came to 1.5.
